Measured values: publication PMC12490239, “Combining BET inhibition with SMAC mimetics restricts tumor growth and triggers immune surveillance in preclinical cancer models” (Cell Reports Medicine, 2025)

Assays:
Assay in all cases: cells
Set-up in all cases: CellTiter-Glo 2.0 luminescence proliferation/viability assay, single agents, human tumour cell line panel
A549 = conditions: Homo sapiens, A549, 96 h; single agent; read-out: IC50 SMACm
Method in brief: (§1)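 Human tumour cell lines were seeded into assay plates and held at 37°C with 5% CO2 for twenty-four hours, then exposed in triplicate to rising concentrations of the SMAC mimetic, from 4.5 nM to 10 μM, with DMSO as control. After 96 h, viability was read as CellTiter-Glo2.0 luminescence to derive single-agent IC50 values.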

C125PM = conditions: 96 h; single agent; read-out: IC50 SMACm
Method in brief: as §1

CFPAC-1 = conditions: Homo sapiens, CFPAC-1, 96 h; single agent; read-out: IC50 SMACm
Method in brief: as §1

COLO-205 = conditions: Homo sapiens, COLO 205, 96 h; single agent; read-out: IC50 SMACm
Method in brief: as §1

EBC-1 = conditions: Homo sapiens, EBC-1, 96 h; single agent; read-out: IC50 SMACm
Method in brief: as §1

HCC1588 = conditions: HCC1588, 96 h; single agent; read-out: IC50 SMACm
Method in brief: as §1

HCC1833 = conditions: 96 h; single agent; read-out: IC50 SMACm
Method in brief: as §1

HCC2998 = conditions: Homo sapiens, HCC 2998, 96 h; single agent; read-out: IC50 SMACm
Method in brief: as §1

HPAF-II = conditions: Homo sapiens, HPAF-II, 96 h; single agent; read-out: IC50 SMACm
Method in brief: as §1

HUTU-80 = conditions: Homo sapiens, HuTu80, 96 h; single agent; read-out: IC50 SMACm
Method in brief: as §1

KM12L4 = conditions: KM 12L4, 96 h; single agent; read-out: IC50 SMACm
Method in brief: as §1

LS-123 = conditions: Homo sapiens, LS-123, 96 h; single agent; read-out: IC50 SMACm
Method in brief: as §1

NCI-H747 = conditions: Homo sapiens, NCI-H747, 96 h; single agent; read-out: IC50 SMACm
Method in brief: as §1

SNU1460 = conditions: 96 h; single agent; read-out: IC50 SMACm
Method in brief: as §1

SNU1684 = conditions: 96 h; single agent; read-out: IC50 SMACm
Method in brief: as §1

IC50 (A549): > 10 µM
IC50 (COLO-205): 4.99 µM
IC50 (HCC1588): 3.07 µM
IC50 (HCC1833): 0.102 µM
IC50 (HCC2998): 3.06 µM
IC50 (NCI-H747): 5.06 µM
IC50 (SNU1460): 3.15 µM
IC50 (SNU1684): 3.2 µM
Structure (SMILES): CN[C@@H](C)C(=O)Nc1ccc(-c2c(-c3cccnc3OC)nc3cc(C)ccn23)c(C#Cc2ccc3c(C)nccc3c2)n1 [SMACm, BI 891065]
IC50 (C125PM): 1.26 µM
IC50 (CFPAC-1): 1.99 µM
IC50 (EBC-1): 2.23 µM
IC50 (HPAF-II): 4.64 µM
IC50 (HUTU-80): 3.31 µM
IC50 (KM12L4): 4.04 µM
IC50 (LS-123): 4.86 µM
